The values below come from article PMC9822133, “Design, Synthesis and Antiproliferative Evaluation of Bis-Indole Derivatives with a Phenyl Linker: Focus on Autophagy” (Molecules, 2022).

Experiment [1] has as its system MCF10A. Description: MTT screening assay, MCF10A non-cancer cells. The class given is cell-based, human. From the text:
(§1) The ability of newly synthesized indole phytoalexins to suppress cell proliferation was screened in vitro on eight cancer cell lines including human colorectal carcinoma (Caco-2 and HCT116), human cervical cancer (HeLa), human breast adenocarcinoma (MCF-7, MDA-MB-231), human alveolar adenocarcinoma (A549) and human leukemic T cell lymphoma (Jurkat), and two non-cancer cell lines (MCF-10A, Cos-7).
(§2) The cell lines used for this study were Caco-2 (human colorectal adenocarcinoma cell line, American Type Culture Collection, Manassas, VA, USA (ATCC)), HCT116 (human colorectal carcinoma cells European Collection of Authenticated Cell Cultures, Salisbury, UK (ECACC)), HeLa (human cervical tumor cells, ECACC), MCF-7 (human breast tumor cells, ECACC), MDA-MB-231 (human breast tumor cells, ATCC), A549 (human lung carcinoma cells, ATCC), BLM (human melanoma lung metastases, a gift from prof. K. Smetana, Institute of Anatomy, Charles University in Prague), Jurkat (human leukemia cell line, ECACC), Cos-7 (immortalized monkey kidney fibroblasts, ATCC) and MCF-10A (human mammary epithelial cells, ATCC). Caco-2, MCF-7, BLM, Cos-7 and A549 cells were cultured in Dulbecco’s Modified Eagle’s Medium (DMEM) with high glucose and sodium pyruvate (GE Healthcare, Piscataway, NJ, USA); HCT116 lines, HeLa, MDA-MB-231 and Jurkat were cultured in RPMI-1640 medium; and MCF10A cells were cultured in high glucose DMEM/F12 (Dulbecco’s Modified Eagle’s Medium F12). The media were enriched with 10% fetal bovine serum (FBS) and a 1% solution of a mixture of antibiotics and antimycotics 1× HyClone™ (GE Healthcare, Chicago, IL, USA). DMEM/F12 medium was supplemented with epidermal growth factor (EGF) (20 ng/mL final), hydrocortisone (0.5 μg/mL final) and insulin (10 μg/mL final) (Sigma-Aldrich Chemie, Steinheim, Germany). The cells were placed in an incubator at 37 °C with humidified air containing 5% CO2.
The MTT assay is a colorimetric method used to quantify the metabolic activity of cells. MTT (3-(4,5-di-methylthiazol-2-yl)2,5-diphenyltetrazolium bromide) (Sigma-Aldrich Chemie, Steinheim, Germany) is reduced by oxidoreductases in the cytosol of cells to light-absorbing formazan, the presence of which can be measured spectrophotometrically and determines the half-maximal inhibitory concentration (IC50). A549 cells were seeded in […] culture plates at a density of 5 × 10^3 per well. After 24 h of cultivation, the tested substance 49 was added in concentrations of 10, 50 and 100 µM.
We also incubated the cells with chloroquine at concentrations of 5–20 µM, which was added 1 h before the addition of the test substance, and cisplatin at concentrations of 3–10 µM. Cisplatin was added 24 h after the addition of 49. After 72 h of incubation, 10 µL of MTT (5 mg/mL) was added to each well. After 4 h, formazan crystals formed in the wells, which were dissolved in 100 uL of 10% SDS (sodium dodecyl sulfate). After 24 h, the absorbance was measured at a wavelength of 540 nm using an automated Cytation™ 3 Cell Imaging Multi-Mode Reader (Biotek, Winooski, VT, USA). These experiments were performed in three independent replicates.

Experiment [2] concerns Cos-7. Description: MTT screening assay, Cos-7 non-cancer cells. The settings on record: Primates, 72 h incubation. The class given is cell-based, monkey.
Excerpt: as §1, §2
The MTT assay is a colorimetric method used to quantify the metabolic activity of cells. MTT (3-(4,5-di-methylthiazol-2-yl)2,5-diphenyltetrazolium bromide) (Sigma-Aldrich Chemie, Steinheim, Germany) is reduced by oxidoreductases in the cytosol of cells to light-absorbing formazan, the presence of which can be measured spectrophotometrically and determines the half-maximal inhibitory concentration (IC50). A549 cells were seeded in […] culture plates at a density of 5 × 10^3 per well. […]
We also incubated the cells with chloroquine at concentrations of 5–20 µM, which was added 1 h before the addition of the test substance, and cisplatin at concentrations of 3–10 µM. […] After 24 h, the absorbance was measured at a wavelength of 540 nm using an automated Cytation™ 3 Cell Imaging Multi-Mode Reader (Biotek, Winooski, VT, USA). […]

In experiment [3] the test system is A549 cells. Description: Cell cycle analysis by flow cytometry. The class given is cell-based, human. On the procedure: To examine whether the antiproliferative effect of compound 49 is associated with cell cycle arrest, flow cytometry analyses of cell cycle progression were performed.
The A549 lung human alveolar adenocarcinoma cells were seeded at a density of 2 × 10^5/dish. After 24 h incubation, the cells were treated with indole phytoalexin 49 at 20 µM concentration alone or after 1 h pre-treatment with chloroquine (20 µM), and the control group with DMSO (v/v 0.02%). The whole population of treated cells (adherent and floating) for cell cycle analyses was harvested at three different times (24, 48 and 72 h), washed in cold washing buffer (PBS), fixed in cold 70% ethanol and stored at −20 °C at least overnight. For flow cytometry analyses, cell suspensions were washed with PBS, resuspended in staining solution (Triton X-100 final concentration 0.1%, ribonuclease A final concentration 0.5 mg/mL, and propidium iodide final concentration 0.025 mg/mL) and incubated for 30 min in the dark at RT. Stained cells were analyzed using a BD FACSCalibur^TM Flow Cytometer (Becton Dickinson, San Jose, CA, USA) in FL-2 channel. Three independent analyses were performed.

For experiment [4], the system named is glutathione (GSH). Description: GSH content in treated A549 cells. The class given is cell-based, human. Conditions: A549, 20 µM. From the text: Glutathione is an important intracellular molecule involved in carcinogen detoxification. On the other hand, its elevated state in cancer cells is often associated with resistance to chemotherapy. […] Because high levels of GSH are associated with cancer cell resistance, the GHS-depleting effect of compound 49 could be interesting due to new cancer chemosensitizer development. In the case of GST and GR, we hypothesize that an increase in the activity of both enzymes may be a compensatory mechanism induced by GSH depletion.
Both floating and adherent A549 cells were harvested at 24, 48, and 72 h after treatment with compound 49 (20 µM). SOD determination kit, Glutathione Peroxidase Cellular Activity Assay kit, Glutathione Reductase Assay Kit and Glutathione-S-transferase (GST) Assay Kit (all Sigma Aldrich, Germany) were used for the detection of relevant enzyme activity. Reduced glutathione (GSH) content was measured by the method originally described by Floreani et al.. Assays were performed on an M 501 single beam UV/VIS spectrophotometer (Spectronic Camspec Ltd., Leeds, United Kingdom). All measured parameters were calculated per milligram or gram of protein determined using the bicinchoninic acid assay.

For the molecule `CC(C)(C)OC(=O)n1cc(CNC(=O)Nc2ccc(NC(=O)NCc3cn(C(=O)OC(C)(C)C)c4ccccc34)cc2)c2ccccc21` [Compound 49, N,N′-(1,4-phenylene)bis{N′-[1-(tert-butoxycarbonyl)indol-3-yl]methyl (urea)}], the IC50 is 55.1 ± 4.1 µM in experiment [1] (Homo sapiens, MCF-10A, 72 h incubation, MTT, non-cancer cells) and > 100 µM in experiment [2]. The “Selectivity index—A549 cells vs. non-cancer cells (MCF10A)” value in experiment [1] (IC50 MCF10A / IC50 A549) is on record as 6.3. The “changes in the G1, S or G2/M phases of the cell cycle” value in experiment [3] (A549, 20 µM, 24, 48 and 72 h, vs DMSO) is “non-significant changes”. The “sub-G0/G1 subpopulation (marker of apoptosis)” value in experiment [3] (A549, 20 µM, all time points, vs DMSO control) is listed as “minimal changes”. Further, in experiment [3] (A549, 49 20 µM + CQ 20 µM, 24 h, vs DMSO, CQ or 49 alone), the “cell cycle, combination with CQ” value is “significant cell cycle arrest at the G1 phase”. In addition, the “subG0/G1 subpopulation, combination with CQ” value in experiment [3] (A549, 49 20 µM + CQ 20 µM, all time points) is “non-significant changes”. In addition, the GSH in experiment [4] (24 h) is recorded as 0.395 ± 0.043 nmol/mg Prot; in experiment [4] (48 h), 0.107 ± 0.015 nmol/mg Prot; in experiment [4] (72 h), 0.228 ± 0.062 nmol/mg Prot.
